Series [1] concerns Amaranthus retroflexus (AMARE). Put plainly: Pre-emergence biological efficacy, glasshouse, 1000 g/ha, evaluated after 13 days (100=total damage to plant; 0=no damage to plant). It is filed as in vivo. To be noted: Amaranthus retroflexus, 312 h, rate 1,000 g/ha, read-out: Percentage damage caused to weed species, pre-emergence, AMARE. In outline: (§1)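 Glasshouse conditions were controlled at 24/16° C. day/night with a 14-hour photoperiod and 65% humidity; pots contained standard soil into which seeds had been sown, and plants were watered twice daily.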

In series [2] the test system is Ipomoea hederaceae (IPOHE). The series is described as above. It is filed as in vivo. To be noted: Ipomoea, 312 h, rate 1,000 g/ha, read-out: Percentage damage caused to weed species, pre-emergence, IPOHE. The procedure, abridged: as §1
Series [3] relates to Solanum nigrum (SOLNI). The series is described as above. It is filed as in vivo. To be noted: Solanum nigrum, 312 h, rate 1,000 g/ha, read-out: Percentage damage caused to weed species, pre-emergence, SOLNI. In outline:
as §1

The subject of series [4] is Setaria faberi (SETFA). Described as above. It is filed as in vivo. The note with it: Setaria faberi, 312 h, rate 1,000 g/ha, read-out: Percentage damage caused to weed species, pre-emergence, SETFA. The procedure, abridged:
as §1

The subject of series [5] is Alopecurus myosuroides (ALOMY). The series is described as above. It is filed as in vivo. The note with it: Alopecurus myosuroides, 312 h, rate 1,000 g/ha, read-out: Percentage damage caused to weed species, pre-emergence, ALOMY. The procedure, abridged: as §1
In series [6] the test system is Echinochloa crus-galli (ECHCG). The series is described as above. It is filed as in vivo. To be noted: Echinochloa crus-galli, 312 h, rate 1,000 g/ha, read-out: Percentage damage caused to weed species, pre-emergence, ECHCG. In outline:
as §1

The test system of series [7] is Amaranthus retroflexus (AMARE). Put plainly: Post-emergence biological efficacy, glasshouse, 500 or 1000 g/ha, evaluated after 13 days (100=total damage to plant; 0=no damage to plant). It is filed as in vivo. The note with it: Amaranthus retroflexus, 312 h, rate 1,000 g/ha, read-out: Percentage damage caused to weed species, post-emergence, AMARE. The procedure, abridged:
(§2)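 Plants raised from seed in pots of standard soil receive the spray after emergence. They then grow on under controlled glasshouse conditions (24/16° C. day/night, 14 hours light, 65% humidity) and are watered twice a day.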

Series [8] concerns Echinochloa crusgaffi (ECHCG). Described as above. It is filed as in vivo. To be noted: Echinochloa, 312 h, rate 1,000 g/ha, read-out: Percentage damage caused to weed species, post-emergence, ECHCG. The procedure, abridged:
as §2

For series [9], the system named is Ipomoea hederaceae (IPOHE). The description is as above. To be noted: Ipomoea, 312 h, rate 1,000 g/ha, read-out: Percentage damage caused to weed species, post-emergence, IPOHE. It is filed as in vivo. The procedure, abridged:
as §2

For series [10], the system named is Solanum nigrum (SOLNI). The series is described as above. It is filed as in vivo. The note with it: Solanum nigrum, 312 h, rate 1,000 g/ha, read-out: Percentage damage caused to weed species, post-emergence, SOLNI. In outline: as §2
In series [11] the test system is Setaria faberi (SETFA). The series is described as above. It is filed as in vivo. The note with it: Setaria faberi, 312 h, rate 1,000 g/ha, read-out: Percentage damage caused to weed species, post-emergence, SETFA. In outline:
as §2

For series [12], the system named is Alopecurus myosuroides (ALOMY). Described as above. It is filed as in vivo. The note with it: Alopecurus myosuroides, 312 h, rate 1,000 g/ha, read-out: Percentage damage caused to weed species, post-emergence, ALOMY. The procedure, abridged:
as §2

In general, melting point refers to the temperature of the solid-liquid transition. Regarding `COC(=O)c1nc(C2CC2)nc2[nH]ccc12` [Compound 1-2, 2-Cyclopropyl-4-methoxycarbonyl-7H-pyrrolo[2,3-d]pyrimidine], the melting point was in the range of 162 to 165 °C. In addition, the pest or weed control at 1000 g/ha in [1] turned out to be 30%. The pest or weed control at 1000 g/ha in series [2] stood at 20%. Besides, the pest or weed control at 1000 g/ha in series [3] stood at 50%. Besides, the pest or weed control at 1000 g/ha in [4] came out at 0%. In addition, in series [5], the pest or weed control at 1000 g/ha came out at 0%. The pest or weed control at 1000 g/ha in [6] stood at 0%. Besides, the pest or weed control at 1000 g/ha in series [7] came out at 90%. In series [8], the pest or weed control at 1000 g/ha came out at 70%. Moreover, in series [9], the pest or weed control at 1000 g/ha stood at 100%. The pest or weed control at 1000 g/ha in series [10] amounted to 90%. Moreover, the pest or weed control at 1000 g/ha in series [11] is 90%. Also, in series [12], the pest or weed control at 1000 g/ha is 10%.
As for `CCOCn1cc(C)c2c(C(=O)O)nc(-c3ccc(Cl)c(OC)c3F)nc21` [Compound 3-63, 4-carboxy-2-(4-chloro-2-fluoro-3-methoxyphenyl)-7-ethoxymethyl-5-methyl-7H-pyrrolo[2,3-d]pyrimidine], the melting point was 112 to 114 °C (dec.). Further, the pest or weed control at 1000 g/ha in [1] was 100%. Moreover, the pest or weed control at 1000 g/ha in series [2] worked out at 20%. In addition, the pest or weed control at 1000 g/ha in series [3] worked out at 50%. In series [4], the pest or weed control at 1000 g/ha was found to be 0%. Also, the pest or weed control at 1000 g/ha in series [5] was determined as 0%. The pest or weed control at 1000 g/ha in [6] is 0%. The pest or weed control at 1000 g/ha in [7] is 80%. Besides, the pest or weed control at 1000 g/ha in [8] was found to be 10%. For the same compound, the pest or weed control at 1000 g/ha in [9] turned out to be 60%. Besides, the pest or weed control at 1000 g/ha in series [10] is 80%. In series [11], the pest or weed control at 1000 g/ha came out at 10%. In addition, the pest or weed control at 1000 g/ha in [12] is 0%.
As to `COC(=O)c1nc(-c2ccc(Cl)c(OC)c2F)nc2c1N(C)CCN2C` [Compound 92-164, 2-(4-chloro-2-fluoro-3-methoxyphenyl)-5,8-dimethyl-4-methoxycarbonyl-5,6,7,8-tetrahydropteridine], the melting point stood at 97 °C. Further, in series [1], the pest or weed control at 1000 g/ha was 0%. For the same compound, in series [2], the pest or weed control at 1000 g/ha stood at 0%. The pest or weed control at 1000 g/ha in [3] stood at 0%. Moreover, the pest or weed control at 1000 g/ha in series [4] was 0%. For the same compound, the pest or weed control at 1000 g/ha in [5] came out at 0%. Besides, the pest or weed control at 1000 g/ha in series [6] worked out at 0%. Moreover, in series [7], the pest or weed control at 1000 g/ha came to 0%. Further, the pest or weed control at 1000 g/ha in [8] is 0%. In series [9], the pest or weed control at 1000 g/ha turned out to be 0%. For the same compound, the pest or weed control at 1000 g/ha in series [10] came to 10%. Moreover, in series [11], the pest or weed control at 1000 g/ha amounted to 0%. Also, the pest or weed control at 1000 g/ha in series [12] was 0%.
The compound `COC(=O)c1nc(C2CC2)nc2c1Nc1ccccc1N2` [Compound 119-28, 2-Cyclo-propyl-4-methoxy-carbonyl-5,10-dihydro-benzo[g] pteridine] came in with a melting point of 217 to 219 °C. The pest or weed control at 1000 g/ha in series [1] turned out to be 0%. In series [2], the pest or weed control at 1000 g/ha amounted to 0%. Also, the pest or weed control at 1000 g/ha in series [3] was 0%. The pest or weed control at 1000 g/ha in series [4] is 0%. Moreover, the pest or weed control at 1000 g/ha in series [5] was found to be 0%. Further, the pest or weed control at 1000 g/ha in series [6] was 0%. In series [7], the pest or weed control at 1000 g/ha turned out to be 20%. In addition, in [8], the pest or weed control at 1000 g/ha worked out at 0%. Further, in series [9], the pest or weed control at 1000 g/ha turned out to be 10%. The pest or weed control at 1000 g/ha in series [10] is 20%. The pest or weed control at 1000 g/ha in series [11] was 0%. Further, in series [12], the pest or weed control at 1000 g/ha was 0%.
In the case of `COC(=O)c1nc(-c2ccc(Cl)c(F)c2)nc2c1ccn2Cc1ccccc1` [Compound 6-18, 2-(4-Chloro-3-fluorophenyl)-4-methoxycarbonyl-7-phenylmethyl-7H-pyrrolo[2,3-d]pyrimidine], the pest or weed control at 1000 g/ha in series [1], in series [2], in series [3], in [4], in series [5] and in series [6] was 0% in each case. For the same compound, the pest or weed control at 1000 g/ha in [7] was 0%; in [8], 0%; in series [9] it was 20%; in [10], 40%; in series [11] it was 0%; in series [12], 0%.
Take `O=C(O)c1nc(-c2ccc(Cl)c(F)c2)nc2c1ccn2Cc1ccccc1[N+](=O)[O-]` [Compound 8-17, 4-Carboxy-2-(4-chloro-3-fluorophenyl)-7-(2-nitropheny-methyl)-7H-pyrrolo[2,3-d]pyrimidine]: the pest or weed control at 1000 g/ha in series [1], in [2], in series [3], in series [4], in series [5] and in series [6] was 0% in each case. Moreover, the pest or weed control at 1000 g/ha in series [7] came to 20%; in [8], 0%; in [9], 50%; in series [10] it was 50%; in series [11], 0%; in [12], 0%.
For `COc1c(Cl)ccc(-c2cc3[nH]cc(C)c3c(C(=O)O)n2)c1F` [Compound 22-63, 4-Carboxy-6-(4-chloro-2-fluoro-3-methoxyphenyl)-3-methyl-1H-pyrrolo[3,2-c]pyridine], the pest or weed control at 1000 g/ha came to 20% in [1]; 70% in [2]; 60% in series [3]; 0% in series [4]; 0% in [5]; 0% in series [6]. The pest or weed control at 1000 g/ha in series [7] is 70%; in series [8] it was 70%; in series [9], 70%; in [10] it was 80%; in series [11], 90%; in series [12] it was 40%.
For the compound `COCCOCCOC(=O)c1nc(-c2ccc(Cl)c(OC)c2F)cc2[nH]cc(C)c12` [Compound 22-85, 6-(4-Chloro-2-fluoro-3-methoxyphenyl)-4-{2-[(2-methoxy)-ethoxy]-ethoxycarbonyl}-3-methyl-1H-pyrrolo[3,2-c]pyridine], the pest or weed control at 1000 g/ha in series [1] worked out at 100%; in series [2], 80%; in [3] it was 100%; in series [4] it was 10%; in series [5] it was 10%; in series [6], 10%. In addition, the pest or weed control at 1000 g/ha in series [7] was 90%; in [8], 20%; in series [9], 40%; in series [10] it was 90%; in [11], 20%; in series [12], 30%.

The values are drawn from US20120202690A1, “HERBICIDAL COMPOUNDS” (SYNGENTA LIMITED, priority 2009, published 2012).
